pEC50: −log10 of the molar value.
Key:
Human TRPML3 = target: T1, Human TRPML3 (Homo sapiens, UniProt Q8TDD5); assay: Fluorescent TRPML3 assay (as for TRPML1); type: cell-based; settings: fluorescent calcium assay as for TRPML1, TRPML3 subtype
T1 construct: expressed in transfected cells
T1 sequence (Q8TDD5 1-553): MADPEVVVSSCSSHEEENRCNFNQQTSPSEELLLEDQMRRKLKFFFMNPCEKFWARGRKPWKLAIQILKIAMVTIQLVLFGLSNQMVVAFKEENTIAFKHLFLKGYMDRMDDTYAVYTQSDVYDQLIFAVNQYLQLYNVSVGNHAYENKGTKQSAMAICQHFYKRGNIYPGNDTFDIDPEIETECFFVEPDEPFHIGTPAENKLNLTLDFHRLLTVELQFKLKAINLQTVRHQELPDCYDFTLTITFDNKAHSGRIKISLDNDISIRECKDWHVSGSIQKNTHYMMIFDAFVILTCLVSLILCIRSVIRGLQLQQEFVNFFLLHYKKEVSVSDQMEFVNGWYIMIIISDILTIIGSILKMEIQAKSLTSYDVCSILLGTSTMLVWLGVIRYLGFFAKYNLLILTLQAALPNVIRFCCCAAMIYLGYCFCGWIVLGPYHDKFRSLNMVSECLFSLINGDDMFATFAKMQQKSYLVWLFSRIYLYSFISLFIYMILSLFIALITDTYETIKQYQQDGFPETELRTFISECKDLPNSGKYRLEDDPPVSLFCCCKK
Description: (§1) HEK-293 Trex cells were stably transfected with a construct consisting of the human coding sequence for TRPML1 cloned into the tet-inducible plasmid pCDNA5 T/O. Mutations were introduced into the TRPML1 sequence to facilitate expression on the cell surface (Silvia Vergarajauregui, Rosa Puertollano Traffic. 2006 March; 7(3): 337-353). Briefly, the cells are cultured in 150 mm round tissue culture dishes containing 20 mL of media. The day before the assay the cells are rinsed with DPBS-Ca-Mg and then treated briefly with Trypsin-EDTA. The Trypsin-EDTA is diluted with growth media, and cells are counted. 38×10^6 cells are re-plated into 150 mm round tissue culture dishes in media containing 0.5 μg/mL doxycycline to induce expression of hTRPML1.
(§2) The day of the experiment cells are lifted from the plates as above and collected by centrifugation. The cells are then suspended in dye loading buffer consisting of Ringer's solution supplemented with 0.1% Pluronic Acid and 1 micromolar Fluo4-AM dye. Cells are loaded for ~60 minutes in the dark with occasional mixing. The cells are collected by centrifugation, the loading media aspirated, and the cells resuspended in 25 mL Ringer's solution and incubated ~60 minutes in the dark. The cells are again collected by centrifugation, rinsed in Ringer's Solution and resuspended to 0.2×10^6 cells/mL in modified Ringer's solution containing 10 mM calcium.
(§3) Compounds are dissolved to a concentration of 10 millimolar with DMSO. Compound plates are created by dispensing compounds into 384 well black wall clear bottom plates (Greiner 781091). Positive and negative controls are included on each plate. Typically, different amounts of each compound are tested ranging from 100 nanoMoles (20 micromolar final concentration) decreasing in half-log steps to 31 picoMoles (6 nanomolar final concentration). Each concentration is typically tested in triplicate.
(§4) 50 microliters of dye-loaded cells are dispensed into each well of the compound assay plate created above. The fluorescence in each well is then determined with an excitation wavelength of 480 nm and an emission wavelength of 540 nm using either a Molecular Devices SpectraMax multimode plate reader or a Hamamatsu FDSS/uCell plate imager.
(§5) The resulting fluorescence for each well is exported as an ascii file and loaded into our LIMS for analysis. The percent activity of each compound at each concentration is determined by comparison to the positive and negative control wells included in each plate.
Assays for TRPML2 and TRPML3 were performed as above for TRPML1, by substituting the appropriate TRPML2 or TRPML3 subtype for the TRPML1.
(§6) EC50 values were calculated using a non-linear regression of Prism. In the table, “A” indicates an EC50 of less than 100 nM, “B” indicates an EC50 range from 100 nM to 500 nM: “C” indicates an EC50 range from 500 nM to 2 μM; and “D” indicates an EC50 greater than 2 μM.

Human TRPML1 = Human TRPML1 (Homo sapiens, UniProt Q9GZU1, L15A/L16A/L577A/L578A); assay: Fluorescent TRPML1 assay (Fluo4-AM, HEK-293 Trex cells expressing hTRPML1); type: cell-based; settings: fluorescent calcium assay, doxycycline-induced hTRPML1
Description: Example 27. Fluorescent TRPML Assays
as §1, §2, §3, §4, §5, §6

Sequence of Human TRPML1 (Q9GZU1 whole entry L15A/L16A/L577A/L578A): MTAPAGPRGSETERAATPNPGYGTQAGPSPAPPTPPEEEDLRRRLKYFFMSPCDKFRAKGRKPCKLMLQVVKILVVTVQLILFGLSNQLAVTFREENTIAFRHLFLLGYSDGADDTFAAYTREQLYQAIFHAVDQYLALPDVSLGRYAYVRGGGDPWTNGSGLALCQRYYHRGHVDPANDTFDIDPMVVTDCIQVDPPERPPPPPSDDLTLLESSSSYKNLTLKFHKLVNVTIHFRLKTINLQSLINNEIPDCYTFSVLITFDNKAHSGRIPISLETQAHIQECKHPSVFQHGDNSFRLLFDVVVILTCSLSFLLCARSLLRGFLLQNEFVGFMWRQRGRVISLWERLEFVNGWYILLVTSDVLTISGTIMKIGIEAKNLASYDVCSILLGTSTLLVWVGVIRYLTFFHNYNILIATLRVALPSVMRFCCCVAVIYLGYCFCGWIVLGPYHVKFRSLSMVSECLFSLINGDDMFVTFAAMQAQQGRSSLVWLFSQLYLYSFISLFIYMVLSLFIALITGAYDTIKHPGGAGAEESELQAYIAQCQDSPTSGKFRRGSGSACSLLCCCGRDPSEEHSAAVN

How did the pEC50 (Human TRPML3) turn out when `C[C@@H]1CN(c2ncnc3c2c(-c2ccncc2)cn3-c2cccc(Cl)c2)[C@@H](C)CN1C(=O)C(C)(C)O` [Compound 137, 1-((2R,5S)-4-(7-(3-chlorophenyl)-5-(pyridin-4-yl)-7H-pyrrolo[2,3-d]pyrimidin-4-yl)-2,5-dimethylpiperazin-1-yl)-2-hydroxy-2-methylpropan-1-one] was run?
Its pEC50 is under 5.70.

And the pEC50 (Human TRPML1)?
The pEC50 was 5.70 to 6.30.

`C[C@@H]1CN(c2ncnc3c2c(-c2ccccc2)cn3-c2cc(C#N)ccn2)[C@@H](C)CN1C(=O)C1(O)CCC1` [Compound 109, 2-(4-((2S,5R)-4-(1-hydroxycyclobutane-1-carbonyl)-2,5-dimethylpiperazin-1-yl)-5-phenyl-7H-pyrrolo[2,3-d]pyrimidin-7-yl)isonicotinonitrile] was tested. Which pEC50 (Human TRPML3) did it give?
Its pEC50 is 5.70 to 6.30.

What about the pEC50 (Human TRPML1) of the same molecule?
The pEC50 was over 7.00.

How did the pEC50 (Human TRPML3) turn out when `C[C@@H]1CN(c2nccc3c2c(-c2ccncc2)cn3-c2cccc(Cl)c2)[C@@H](C)CN1C(=O)C(C)(C)O` [Compound 142, 1-((2R,5S)-4-(1-(3-chlorophenyl)-3-(pyridin-4-yl)-1H-pyrrolo[3,2-c]pyridin-4-yl)-2,5-dimethylpiperazin-1-yl)-2-hydroxy-2-methylpropan-1-one] was run?
The pEC50 was under 5.70.

What about the pEC50 (Human TRPML1) of the same molecule?
The pEC50 was 5.70 to 6.30.

With `C[C@@H]1CN(c2ncnc3c2c(-n2ccnc2)cn3-c2cc(C#N)ccn2)[C@@H](C)CN1C(=O)C(C)(C)O` [Compound 132, 2-(4-((2S,5R)-4-(2-hydroxy-2-methylpropanoyl)-2,5-dimethylpiperazin-1-yl)-5-(1H-imidazol-1-yl)-7H-pyrrolo[2,3-d]pyrimidin-7-yl)isonicotinonitrile] as the molecule, how does the pEC50 (Human TRPML3) read?
Its pEC50 is under 5.70.

What about the pEC50 (Human TRPML1) of the same molecule?
The pEC50 was under 5.70.

`C[C@@H]1CN(c2ncnc3c2c(-c2ccccc2F)cn3-c2cc(C#N)ccn2)[C@@H](C)CN1C(=O)C1(O)CCC1` [Compound 114, 2-(5-(2-fluorophenyl)-4-((2S,5R)-4-(1-hydroxycyclobutane-1-carbonyl)-2,5-dimethylpiperazin-1-yl)-7H-pyrrolo[2,3-d]pyrimidin-7-yl)isonicotinonitrile] was tested. Which pEC50 (Human TRPML3) did it give?
The pEC50 was 6.30 to 7.00.

And the pEC50 (Human TRPML1)?
Its pEC50 is over 7.00.

With `CC(C)[C@H]1CN(C(=O)C(C)(C)O)[C@H](C)CN1c1ncnc2c1c(-c1ccccc1)cn2-c1cc(C#N)ccn1` [Compound 131, 2-(4-((2S,5R)-4-(2-hydroxy-2-methylpropanoyl)-2-isopropyl-5-methylpiperazin-1-yl)-5-phenyl-7H-pyrrolo[2,3-d]pyrimidin-7-yl)isonicotinonitrile] as the molecule, how does the pEC50 (Human TRPML3) read?
Its pEC50 is 5.70 to 6.30.

And the pEC50 (Human TRPML1)?
The pEC50 was 6.30 to 7.00.

Which results are given for `C[C@@H]1CN(c2ncnc3c2c(-c2cccnc2)cn3-c2cc(C#N)ccn2)[C@@H](C)CN1C(=O)C(C)(C)O` [Compound 115, 2-(4-((2S,5R)-4-(2-hydroxy-2-methylpropanoyl)-2,5-dimethylpiperazin-1-yl)-5-(pyridin-3-yl)-7H-pyrrolo[2,3-d]pyrimidin-7-yl)isonicotinonitrile]?
pEC50 (Human TRPML3): < 5.70; pEC50 (Human TRPML1): 5.70 to 6.30

What does the source list for `C[C@@H]1CN(c2ncnc3c2c(C2CC2)cn3-c2cc(C#N)ccn2)[C@@H](C)CN1C(=O)CC(C)(C)O` [Compound 160, 2-(5-cyclopropyl-4-((2S,5R)-4-(3-hydroxy-3-methylbutanoyl)-2,5-dimethylpiperazin-1-yl)-7H-pyrrolo[2,3-d]pyrimidin-7-yl)isonicotinonitrile]?
pEC50 (Human TRPML3): 5.70 to 6.30; pEC50 (Human TRPML1): 5.70 to 6.30

`C[C@@H]1CN(c2ncnc3c2c(-c2ccncc2)cn3-c2cc(C#N)ccn2)[C@@H](C)CN1C(=O)C1(O)CC1` [Compound 149, 2-(4-((2S,5R)-4-(1-hydroxycyclopropane-1-carbonyl)-2,5-dimethylpiperazin-1-yl)-5-(pyridin-4-yl)-7H-pyrrolo[2,3-d]pyrimidin-7-yl)isonicotinonitrile] was tested. Which pEC50 (Human TRPML3) did it give?
The pEC50 was under 5.70.

And the pEC50 (Human TRPML1)?
The pEC50 was 5.70 to 6.30.

What does the source list for `C[C@@H]1CN(c2ncnc3c2c(-c2ccccc2)cn3-c2cc(C#N)ccn2)[C@@H](C2CC2)CN1C(=O)C(C)(C)O` [Compound 119, 2-(4-((2S,5R)-2-cyclopropyl-4-(2-hydroxy-2-methylpropanoyl)-5-methylpiperazin-1-yl)-5-phenyl-7H-pyrrolo[2,3-d]pyrimidin-7-yl)isonicotinonitrile]?
pEC50 (Human TRPML3): 5.70 to 6.30; pEC50 (Human TRPML1): 6.30 to 7.00

How did the pEC50 (Human TRPML3) turn out when `C[C@@H]1CN(c2ncnc3c2c(-c2cnco2)cn3-c2cc(C#N)ccn2)[C@@H](C)CN1C(=O)C(C)(C)O` [Compound 127, 2-(4-((2S,5R)-4-(2-hydroxy-2-methylpropanoyl)-2,5-dimethylpiperazin-1-yl)-5-(oxazol-5-yl)-7H-pyrrolo[2,3-d]pyrimidin-7-yl)isonicotinonitrile] was run?
Its pEC50 is under 5.70.

What about the pEC50 (Human TRPML1) of the same molecule?
The pEC50 was 6.30 to 7.00.

With `C[C@@H]1CN(c2ncnc3c2c(-c2ccccc2)cn3-c2cc(F)ccn2)[C@@H](C)CN1C(=O)C(C)(C)O` [Compound 106, 1-((2R,5S)-4-(7-(4-fluoropyridin-2-yl)-5-phenyl-7H-pyrrolo[2,3-d]pyrimidin-4-yl)-2,5-dimethylpiperazin-1-yl)-2-hydroxy-2-methylpropan-1-one] as the molecule, how does the pEC50 (Human TRPML3) read?
Its pEC50 is under 5.70.

What about the pEC50 (Human TRPML1) of the same molecule?
The pEC50 was 6.30 to 7.00.

Which results are given for `C[C@@H]1CN(c2ncnc3c2c(-c2ccno2)cn3-c2cc(C#N)ccn2)[C@@H](C)CN1C(=O)C(C)(C)O` [Compound 152]?
pEC50 (Human TRPML3): < 5.70; pEC50 (Human TRPML1): 5.70 to 6.30

What does the source list for `C[C@@H]1CN(c2ncnc3c2c(-c2ccccc2)cn3-c2cc(C#N)ccn2)[C@@H](C)CN1C(=O)C(C)(C)O` [Compound 101, 2-(4-((2S,5R)-4-(2-hydroxy-2-methylpropanoyl)-2,5-dimethylpiperazin-1-yl)-5-phenyl-7H-pyrrolo[2,3-d]pyrimidin-7-yl)isonicotinonitrile]?
pEC50 (Human TRPML3): 5.70 to 6.30; pEC50 (Human TRPML1): > 7.00

With `C[C@@H]1CN(c2ncnc3c2c(-c2ccccc2F)cn3-c2cc(OC(F)(F)F)ccn2)[C@@H](C)CN1C(=O)C(C)(C)O` [Compound 103, 1-((2R,5S)-4-(5-(2-fluorophenyl)-7-(4-(trifluoromethoxy)pyridin-2-yl)-7H-pyrrolo[2,3-d]pyrimidin-4-yl)-2,5-dimethylpiperazin-1-yl)-2-hydroxy-2-methylpropan-1-one] as the molecule, how does the pEC50 (Human TRPML3) read?
The pEC50 was 5.70 to 6.30.

And the pEC50 (Human TRPML1)?
Its pEC50 is 6.30 to 7.00.

With `C[C@@H]1CN(c2ncnc3c2c(-c2ccncc2)cn3-c2cccc(F)c2)[C@@H](C)CN1C(=O)C(C)(C)O` [Compound 139, 1-((2R,5S)-4-(7-(3-fluorophenyl)-5-(pyridin-4-yl)-7H-pyrrolo[2,3-d]pyrimidin-4-yl)-2,5-dimethylpiperazin-1-yl)-2-hydroxy-2-methylpropan-1-one] as the molecule, how does the pEC50 (Human TRPML3) read?
The pEC50 was under 5.70.

What about the pEC50 (Human TRPML1) of the same molecule?
Its pEC50 is under 5.70.

`C[C@@H]1CN(c2nccc3c2c(-c2ccncc2)cn3-c2cc(C#N)ccn2)[C@@H](C)CN1C(=O)C(C)(C)O` [Compound 140, 2-(4-((2S,5R)-4-(2-hydroxy-2-methylpropanoyl)-2,5-dimethylpiperazin-1-yl)-3-(pyridin-4-yl)-1H-pyrrolo[3,2-c]pyridin-1-yl)isonicotinonitrile] was tested. Which pEC50 (Human TRPML3) did it give?
Its pEC50 is under 5.70.

What about the pEC50 (Human TRPML1) of the same molecule?
The pEC50 was 5.70 to 6.30.

With `C[C@@H]1CN(c2ncnc3c2c(-c2ccccc2F)cn3-c2cc(C#N)ccn2)[C@@H](C)CN1C(=O)C1(O)CCN(C)CC1` [Compound 123, 2-(5-(2-fluorophenyl)-4-((2S,5R)-4-(4-hydroxy-1-methylpiperidine-4-carbonyl)-2,5-dimethylpiperazin-1-yl)-7H-pyrrolo[2,3-d]pyrimidin-7-yl)isonicotinonitrile] as the molecule, how does the pEC50 (Human TRPML3) read?
Its pEC50 is under 5.70.

What about the pEC50 (Human TRPML1) of the same molecule?
The pEC50 was under 5.70.
